Laboratory results reported in the NIST ThermoML archive (doi:10.1016/j.jct.2009.10.002).

Assay: mn = molality of the nth substance listed, in mol/kg
Conditions: 298.15 K, 101 kPa, Liquid, Vibrating tube method

CC(=O)Nc1ccccc1C(=O)O [2-acetamidobenzoic acid] + CCCCCCCCO
Conditions	mass density [kg/m3]
m1 = 0.004871	822.31
m1 = 0.008993	822.47
m1 = 0.01189	822.58
m1 = 0.01818	822.82
m1 = 0.02358	823.02
m1 = 0.03392	823.42
m1 = 0.05837	824.35
m1 = 0.0873	825.4
m1 = 0.1273	826.83
m1 = 0.1682	828.43

NC(=O)c1ccccc1O [2-hydroxybenzamide] + CCCCCCCCO
Conditions	mass density [kg/m3]
m1 = 0.002458	822.19
m1 = 0.003905	822.23
m1 = 0.0061	822.31
m1 = 0.007816	822.37
m1 = 0.01182	822.51
m1 = 0.02311	822.87
m1 = 0.03084	823.13
m1 = 0.03859	823.39
m1 = 0.05387	823.86
m1 = 0.08947	825.16

CC(=O)Nc1cccc(C(=O)O)c1 [3-(acetylamino)benzoic acid] + CCCCCCCCO
Conditions	mass density [kg/m3]
m1 = 0.000244	822.13
m1 = 0.000488	822.14
m1 = 0.000973	822.17
m1 = 0.001081	822.17
m1 = 0.001283	822.18
m1 = 0.001361	822.19
m1 = 0.001375	822.19
m1 = 0.001452	822.19
m1 = 0.001582	822.2
m1 = 0.002358	822.23
m1 = 0.003857	822.28
m1 = 0.006025	822.36
m1 = 0.007586	822.43
m1 = 0.009397	822.51
m1 = 0.0109	822.57
m1 = 0.01161	822.6
m1 = 0.01355	822.68
m1 = 0.01453	822.72

CC(=O)Nc1cccc(O)c1 [3-acetamidophenol] + CCCCCCCCO
Conditions	mass density [kg/m3]
m1 = 0.002796	822.21
m1 = 0.006909	822.37
m1 = 0.008394	822.43
m1 = 0.01356	822.62
m1 = 0.02056	822.89
m1 = 0.04126	823.67
m1 = 0.08892	825.48
m1 = 0.1451	827.61
m1 = 0.1875	829.24
m1 = 0.2708	832.45

NC(=O)c1cccc(O)c1 [3-hydroxy-benzamide] + CCCCCCCCO
Conditions	mass density [kg/m3]
m1 = 0.001492	822.16
m1 = 0.002531	822.2
m1 = 0.003737	822.25
m1 = 0.006435	822.38
m1 = 0.007522	822.43
m1 = 0.01163	822.62
m1 = 0.02156	823.03
m1 = 0.03239	823.51
m1 = 0.04091	823.88
m1 = 0.05285	824.43
m1 = 0.07208	825.26
m1 = 0.08749	825.95

CC(=O)Nc1ccc(C(=O)O)cc1 [4-acetamidobenzoic acid] + CCCCCCCCO
Conditions	mass density [kg/m3]
m1 = 0.000708	822.14
m1 = 0.00077	822.15
m1 = 0.000914	822.16
m1 = 0.001192	822.17
m1 = 0.001367	822.18
m1 = 0.002266	822.23
m1 = 0.002865	822.26
m1 = 0.002919	822.26
m1 = 0.003657	822.3
m1 = 0.005744	822.42
m1 = 0.01212	822.76
m1 = 0.01816	823.12
m1 = 0.02407	823.47
m1 = 0.0284	823.73
m1 = 0.03621	824.17

NC(=O)c1ccc(O)cc1 [4-hydroxybenzamide] + CCCCCCCCO
Conditions	mass density [kg/m3]
m1 = 0.002127	822.18
m1 = 0.005332	822.31
m1 = 0.005725	822.34
m1 = 0.007571	822.43
m1 = 0.01115	822.59
m1 = 0.01722	822.85
m1 = 0.02131	822.99
m1 = 0.02267	823.06
m1 = 0.02734	823.25
m1 = 0.02874	823.32
m1 = 0.038	823.71
m1 = 0.05733	824.52
m1 = 0.0819	825.53
m1 = 0.09825	826.23
m1 = 0.1209	827.18
m1 = 0.1408	828.01
m1 = 0.1856	829.93
